{"source": "patent US10028960B2", "about": "“Pyrimidine compounds as JAK kinase inhibitors” (THERAVANCE BIOPHARMA R&D IP, LLC, priority 2016, dated 2018)", "key": {"[1]": {"test_system": "oxazolone-induced colitis", "experiment": "Mouse model of oxazolone-induced colitis", "assay_type": "in vivo, BALB/C mice", "description": "Oxazolone-induced colitis is an experimental model that has a histological resemblance to human ulcerative colitis (Heller et al. […], 2002, 17, 629-638). Adult BALB/C mice from Harlan were used in the assay. On day 1, animals were lightly anesthetized with isoflurane and the hairs between the shoulder were carefully removed before oxazolone (4%, 150 μL, 4:1 acetone: olive oil formulation) or vehicle solution was slowly applied for skin sensitization. Seven days after skin sensitization, the mice were fasted overnight, anesthetized with isoflurane inhalation, and a 1 mL syringe equipped with a 3.5-F catheter, filled with oxazolone solution, was inserted carefully about 4 cm into the colon of the mouse. Following insertion, 50 μL of the oxazolone solution (1%, 1:1 ethanol:water formulation) was injected very slowly (over 30 sec using an injection pump) into the colon. The catheter was removed and the mice were held vertically (head down) for 2 min to ensure that the entire oxazolone solution remained inside the colon. Drug treatment (PO, BID or TID) or vehicle was initiated a day prior to the oxazolone intrarectal (IR) challenge. Two-day post oxazolone intrarectal challenge, the Disease Activity Index (DAI) was assessed by treatment-blinded experimenters for each mouse according to the criteria score: stool consistency score (0, normal; 2, loose; 4, diarrhea), gross bleeding score (0, absence; 2, blood tinged; 4, presence), and weight loss score (0, none; 1, 1%-5%; 2, 5%-10%; 3, 10%-20%; 4, more than 20%); DAI=average of (stool consistency score+gross bleeding score+weight loss score).\nSelected compounds of the invention were tested in the assay. Efficacy in the model is evidenced by a decrease in DAI score as compared with the score from vehicle treated animals."}, "[2]": {"test_system": "mouse splenic NK, B and T cells", "details": "in vivo, po", "description": "Depletion of mouse splenic cells is an experimental model of immunosuppression (Kudlacz et al., Am. J. of Transplantation, 2004, 4, 51-57). The compound of Example 2 was assessed in the mouse splenic cell model following the same treatment paradigm as that used in the oxazolone-induced colitis model (Assay 8).\nThe compound (1, 10 and 100 mg/kg, BID) and tofacitinib (30 and 60 mg/kg, BID) as a positive control were dosed orally for three days to naïve mice. Spleens were harvested 1 h post last dose and crushed immediately for cell subtype staining. Prior to fixation, fluorophore-labelled antibodies for CD19 (FITC; B cells), CD3e (PE; pan T cells) and DX5 (APC; NK cells) were incubated with splenocyte samples from each animal to allow for simultaneous, multiple subtype % analysis on the flow cytometer. The number of total spleen cells for each animal was measured by Scepter™ 2.0 Handheld Automated Cell Counter.\nThe absolute number of lymphocyte subtype population (e.g., splenic B, T and NK cells) was calculated from the percentage of each subtype times total spleen cells for each animal. A one way ANOVA, with Dunnett's post hoc test, was used to compare the splenic lymphocytes number of the vehicle and test compound groups. The a level was set at p<0.05. Data were presented as the mean±SEM for each group."}, "JAK2": {"target": "JAK2 (Homo sapiens (Human), UniProt O60674)", "sequence (O60674 whole entry)": "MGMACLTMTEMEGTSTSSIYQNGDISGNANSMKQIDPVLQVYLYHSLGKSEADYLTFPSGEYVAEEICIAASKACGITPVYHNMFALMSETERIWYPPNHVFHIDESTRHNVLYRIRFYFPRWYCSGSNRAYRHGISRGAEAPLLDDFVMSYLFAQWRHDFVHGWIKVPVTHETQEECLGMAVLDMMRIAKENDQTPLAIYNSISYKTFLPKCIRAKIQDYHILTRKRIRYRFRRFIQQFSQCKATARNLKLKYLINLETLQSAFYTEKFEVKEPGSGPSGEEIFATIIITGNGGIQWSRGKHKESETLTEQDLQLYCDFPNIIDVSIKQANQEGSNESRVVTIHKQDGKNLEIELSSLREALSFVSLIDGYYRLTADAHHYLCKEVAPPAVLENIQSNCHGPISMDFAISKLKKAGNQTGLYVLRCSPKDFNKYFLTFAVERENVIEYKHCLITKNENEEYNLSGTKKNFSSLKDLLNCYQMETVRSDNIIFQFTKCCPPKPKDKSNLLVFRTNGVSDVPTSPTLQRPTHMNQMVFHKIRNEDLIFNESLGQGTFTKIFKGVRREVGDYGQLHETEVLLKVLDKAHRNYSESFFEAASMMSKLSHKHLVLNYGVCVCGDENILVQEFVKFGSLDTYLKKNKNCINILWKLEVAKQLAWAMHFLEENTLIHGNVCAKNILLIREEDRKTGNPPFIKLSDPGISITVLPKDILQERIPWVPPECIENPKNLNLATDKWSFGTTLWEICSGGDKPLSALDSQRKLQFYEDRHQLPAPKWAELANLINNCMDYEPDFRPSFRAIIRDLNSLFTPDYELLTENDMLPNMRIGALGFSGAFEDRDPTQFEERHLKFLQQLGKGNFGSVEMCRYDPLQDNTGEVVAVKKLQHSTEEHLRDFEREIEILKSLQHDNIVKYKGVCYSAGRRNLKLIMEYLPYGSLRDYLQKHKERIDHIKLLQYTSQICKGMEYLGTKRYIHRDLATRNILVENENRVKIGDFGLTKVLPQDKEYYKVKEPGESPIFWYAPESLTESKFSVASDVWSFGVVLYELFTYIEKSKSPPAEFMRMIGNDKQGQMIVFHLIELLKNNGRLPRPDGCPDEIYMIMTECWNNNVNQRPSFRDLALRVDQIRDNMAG", "experiment": "LanthaScreen JAK biochemical assay, JAK2", "description": "(§1) A panel of four LanthaScreen JAK biochemical assays (JAK1, 2, 3 and Tyk2) were carried in a common kinase reaction buffer (50 mM HEPES, pH 7.5, 0.01% Brij-35, 10 mM MgCl2, and 1 mM EGTA). Recombinant GST-tagged JAK enzymes and a GFP-tagged STAT1 peptide substrate were obtained from Life Technologies."}, "[3]": {"test_system": "TPA-induced increase in ear thickness", "experiment": "Topical TPA-induced irritant contact dermatitis model in mice", "assay_type": "in vivo, Balb/c mice", "details": "mouse ear, 6 hours after TPA", "description": "The objective of this assay is to assess the anti-inflammatory effect in a model of acute dermatitis of test compounds being studied for cutaneous inflammatory conditions such as atopic dermatitis (Dong et al., J Pharmacol Exp Ther, 2013, 344, 436-446).\nTopical dermal application of phorbol ester 12-O-tetradecanoylphorbol-13-acetate (TPA) in mice causes an inflammatory response that is characterized by edema and neutrophil influx at the early phase (2-24 h) and by epidermal cell proliferation at the later phase (24-48 h) (Griffiths et al., Agents and Actions, 1988, 25, 344-351). Female Balb/c mice were topically administered with either vehicle (1:7 DMSO:acetone) or 20 μL of a solution of TPA (2.5 μg) in vehicle on each ear. At 30 min before and 15 min after TPA administration, either vehicle or the compound of Example 2 at doses of 30, 100, 300, 1000, and 3000 μg in vehicle was applied topically to each ear. The degree of inflammation was assessed as the change in ear thickness at 6 hours after TPA application."}, "[4]": {"experiment": "Colon pharmacokinetics in rats", "details": "Sprague Dawley, rat, colon and plasma, po, 5 mg/kg", "method": "The test compound was formulated in 0.5% methyl-cellulose in water and dosed via oral gavage at 3.2 mg/kg and 100 mg/kg to Sprague Dawley rats. At various time points (typically 0.5, 1, 3, 6, 24 hr) post dosing, blood samples were removed via cardiac puncture and intact colons were excised from the rats. Blood samples were centrifuged at 1500×g for 15 min to collect plasma. Colons were washed with ice cold phosphate buffered saline (PBS), weighed, and homogenized at a dilution of 1:10 in PBS. Plasma and colon levels of test compound were determined by LC-MS analysis against analytical standards constructed into a standard curve in the test matrix. A colon to plasma ratio was determined as the ratio of the colon AUC to the plasma AUC in μg hr/g."}, "JAK3": {"target": "JAK3 (Homo sapiens (Human), UniProt P52333)", "sequence (P52333 whole entry)": "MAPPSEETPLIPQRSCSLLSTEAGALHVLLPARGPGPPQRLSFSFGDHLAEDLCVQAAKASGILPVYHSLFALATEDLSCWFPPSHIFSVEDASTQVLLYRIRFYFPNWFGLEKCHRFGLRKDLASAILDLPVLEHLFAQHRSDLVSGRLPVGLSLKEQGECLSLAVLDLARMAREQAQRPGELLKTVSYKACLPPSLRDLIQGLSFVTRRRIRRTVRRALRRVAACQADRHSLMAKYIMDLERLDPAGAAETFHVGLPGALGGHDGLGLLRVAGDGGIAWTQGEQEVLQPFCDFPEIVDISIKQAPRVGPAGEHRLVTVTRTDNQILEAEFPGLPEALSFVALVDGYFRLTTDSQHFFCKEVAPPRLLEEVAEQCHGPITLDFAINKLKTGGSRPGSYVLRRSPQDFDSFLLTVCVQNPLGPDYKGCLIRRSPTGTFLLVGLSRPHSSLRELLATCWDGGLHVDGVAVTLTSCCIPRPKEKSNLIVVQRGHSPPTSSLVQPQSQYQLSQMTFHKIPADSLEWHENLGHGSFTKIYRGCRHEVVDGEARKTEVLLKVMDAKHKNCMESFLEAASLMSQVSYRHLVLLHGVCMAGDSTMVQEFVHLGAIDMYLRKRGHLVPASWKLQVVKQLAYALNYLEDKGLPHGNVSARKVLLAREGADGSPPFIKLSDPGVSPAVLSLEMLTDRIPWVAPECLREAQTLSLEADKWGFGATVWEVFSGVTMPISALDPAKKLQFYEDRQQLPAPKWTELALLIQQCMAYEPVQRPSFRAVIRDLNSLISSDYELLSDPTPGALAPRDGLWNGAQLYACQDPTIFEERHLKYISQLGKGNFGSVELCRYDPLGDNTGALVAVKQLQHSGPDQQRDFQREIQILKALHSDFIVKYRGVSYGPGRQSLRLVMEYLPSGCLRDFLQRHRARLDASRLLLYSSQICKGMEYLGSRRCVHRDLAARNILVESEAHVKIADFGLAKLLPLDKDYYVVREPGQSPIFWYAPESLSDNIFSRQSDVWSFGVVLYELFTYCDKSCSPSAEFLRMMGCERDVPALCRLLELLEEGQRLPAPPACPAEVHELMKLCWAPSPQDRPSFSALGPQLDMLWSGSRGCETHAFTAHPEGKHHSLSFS", "experiment": "LanthaScreen JAK biochemical assay, JAK3", "details": "read-out: JAK 3 (pKi) (converted)", "description": "as §1"}, "Tyk2": {"target": "Tyk2 (Homo sapiens (Human), UniProt P29597)", "sequence (P29597 whole entry)": "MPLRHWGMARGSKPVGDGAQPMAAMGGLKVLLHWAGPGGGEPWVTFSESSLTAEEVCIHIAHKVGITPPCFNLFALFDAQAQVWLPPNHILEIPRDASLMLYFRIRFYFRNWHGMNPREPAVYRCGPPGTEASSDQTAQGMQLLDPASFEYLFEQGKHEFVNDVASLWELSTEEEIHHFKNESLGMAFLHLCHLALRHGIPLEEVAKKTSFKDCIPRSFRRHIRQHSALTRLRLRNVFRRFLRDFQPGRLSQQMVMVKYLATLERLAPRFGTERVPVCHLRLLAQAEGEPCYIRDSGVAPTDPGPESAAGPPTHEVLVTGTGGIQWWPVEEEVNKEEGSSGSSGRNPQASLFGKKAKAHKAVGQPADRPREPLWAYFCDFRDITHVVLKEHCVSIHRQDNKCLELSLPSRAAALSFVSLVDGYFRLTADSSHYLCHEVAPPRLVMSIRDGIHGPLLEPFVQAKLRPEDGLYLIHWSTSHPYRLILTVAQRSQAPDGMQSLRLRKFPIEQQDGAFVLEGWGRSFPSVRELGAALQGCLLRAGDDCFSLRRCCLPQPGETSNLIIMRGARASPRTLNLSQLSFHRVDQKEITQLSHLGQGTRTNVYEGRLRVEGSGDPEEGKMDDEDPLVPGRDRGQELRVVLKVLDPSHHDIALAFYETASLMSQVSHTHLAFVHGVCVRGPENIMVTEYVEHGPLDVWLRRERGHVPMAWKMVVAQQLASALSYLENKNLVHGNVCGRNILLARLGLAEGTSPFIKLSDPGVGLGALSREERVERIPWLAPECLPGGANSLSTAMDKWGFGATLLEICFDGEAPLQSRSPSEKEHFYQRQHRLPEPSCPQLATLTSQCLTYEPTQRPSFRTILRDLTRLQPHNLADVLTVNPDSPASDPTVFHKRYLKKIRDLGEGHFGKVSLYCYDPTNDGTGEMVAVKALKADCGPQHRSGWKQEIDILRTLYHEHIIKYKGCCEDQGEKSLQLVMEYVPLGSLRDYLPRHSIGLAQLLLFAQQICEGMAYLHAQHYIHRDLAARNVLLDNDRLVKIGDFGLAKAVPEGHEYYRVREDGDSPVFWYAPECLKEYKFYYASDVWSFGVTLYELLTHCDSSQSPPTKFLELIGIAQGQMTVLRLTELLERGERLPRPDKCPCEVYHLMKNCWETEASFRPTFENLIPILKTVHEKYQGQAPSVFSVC", "experiment": "LanthaScreen JAK biochemical assay, Tyk2", "description": "as §1"}}, "note": "“Also recorded” adds a separate entry of the source.", "data": [{"molecule": "COc1cc(Nc2cc(CO)[nH]n2)nc(N(C)[C@@H]2C[C@H]3CCC[C@@H](C2)N3S(=O)(=O)N2CC(C#N)C2)n1", "note": "[Example 2, 1-(((1R,3s,5S)-3-((4-((5-(Hydroxymethyl)-1H-pyrazol-3-yl)amino)-6-methoxypyrimidin-2-yl)(methyl)amino)-9-azabicyclo[3.3.1]nonan-9-yl)sulfonyl)azetidine-3-carbonitrile]", "values": [{"measurement": "activity in the oxazolone-induced colitis model", "setting": "[1]; mice", "value": "demonstrated activity"}, {"measurement": "minimal dose that caused a significant anti-colitic effect", "setting": "[1]; mouse, PO BID", "value": 1, "unit": "mg/kg"}, {"measurement": "decrease in DAI score as compared with vehicle treated animals", "setting": "[1]; mouse, PO, 1, 3, and/or 10 mg/kg BID", "value": "statistically significant decrease"}, {"measurement": "treatment effect on B and T cell populations", "setting": "[2]", "value": "No treatment effect"}, {"measurement": "JAK 2 (pKi)", "setting": "JAK2", "value": "A (A represents a pKi value≥10 (Ki≤0.1 nM))"}, {"measurement": "inhibition of TPA-induced increase in ear thickness (in words)", "setting": "[3]; topical 30-3000 μg", "value": "dose- and concentration-dependent effect; also recorded: dose- and concentration-dependent inhibition"}, {"measurement": "maximum statistically significant inhibition of TPA-induced increase in ear thickness", "setting": "[3]; topical, 1000 μg dose", "value": 41, "unit": "%"}, {"measurement": "Kp", "setting": "[4]", "value": "> 250"}, {"measurement": "Ki", "setting": "JAK3", "value": "100 to 1000", "unit": "pM"}, {"measurement": "Ki", "setting": "Tyk2", "value": "100 to 1000", "unit": "pM"}]}]}
